Data published in patent US8242167B2, “Mannose derivatives for killing tumor cells” (University of Miami, priority 2006, dated 2012).

Tests used:
[1] = test system: MCF-7, breast cancer; test: Cytotoxicity under normoxia, MCF-7; format: cell-based; settings: column head gives the result: resistant
Experimental: (§1) Cytotoxicity assay. Cells were incubated for 24 hr at 37° C. in 5% CO2 at which time drug treatments began and continued for 72 hr. At this time, attached cells were trypsinized and combined with their respective culture media followed by centrifugation at 400 g for 5 min. The pellets were resuspended in 1 ml of Hanks solution and analyzed by Vi-Cell (Beckman Coulter, USA) cell viability analyzer.

[2] = test system: tumor cell lines; test: Toxicity survey of tumor cell lines under normoxic conditions; format: cell-based
Experimental: (§2) Cell types. The Δ^0 cells were isolated by treating osteosarcoma cell line 143B (wt) with ethidium bromide for prolonged periods, as previously described (9). Because the Δ^0 cells are uridine and pyruvate auxotrophs, they were grown in DMEM (GIBCO, USA) supplemented with 10% fetal calf serum, 50 μg/ml of uridine and 100 mM sodium pyruvate. The SKBR3 cell line was obtained from Dr. Joseph Rosenblatt's laboratory at the University of Miami. The pancreatic cancer cell lines 1420 and 1469, the ovarian cancer cell line SKOV3, the cervical cancer cell line HELA, and the osteosarcoma cell line 143B were purchased from ATCC. The non-small cell lung cancer and small cell lung cancer cell lines were derived from patients by Dr. Niramol Savaraj at the University of Miami. SKBR3 and SKOV3 cells were grown in McCoy's 5A medium; 1420, 1469 and 143B were grown in DMEM (GIBCO, USA); and HELA was grown in MEM (GIBCO, USA). The media was supplemented with 10% fetal bovine serum. All cells were grown under 5% CO2 and 37° C.
as §1

[3] = test system: 1420, pancreatic cancer; test: Cytotoxicity under normoxia, 1420; format: cell-based, human; settings: column head gives the result: sensitive
Experimental: as §2, §1

[4] = test system: human tumor xenografts; settings: different human tumor xenografts; cited from earlier work
[5] = test system: MDA-MB-468, breast cancer; test: Cytotoxicity under normoxia, MDA-MB-468; format: cell-based; settings: column head gives the result: resistant
Experimental: as §1

[6] = test system: CHOP/GADD154; test: Western blot of CHOP/GADD154 in SKBR3 cells; format: cell-based, human; settings: SKBR3, normoxia, 24 hrs; 8 mM sugar analog
Experimental: (§3) Western Blot analysis. Cells were plated at 10^4 cell cm^−2 and grown under drug treatment for the indicated times. At the end of the treatment period, cells were collected and lysed with 1% SDS in 80 mM Tris-HCL (ph 7.4) buffer supplemented with a proteinase inhibitor cocktail. DNA was fragmented by sonication and protein concentrations were measured by microBCA protein assay kit (Pierce, USA). Samples were mixed with 2× Laemmli sample buffer (Bio-Rad, USA) and run on a SDS-polyacrylamide gel. Gels were transferred to nitrocellulose membranes (Amersham, USA) and probed with anti-KDEL (Stressgen, Canada) (for Grp78 and Grp94); polyclonal anti-CHOP/[…] (Santa Cruz, USA), polyclonal anti-erbB2 (DAKO, USA). Following probing, membranes were washed and incubated with an HRP conjugated secondary antibody. Chemiluminesence was detected by exposure to film. Where indicated, membranes were stripped with Stripping Buffer (Pierce, USA) and reprobed with anti-actin (Sigma, USA) primary antibody. To analyze conconavalin A (ConA) binding, the membranes were incubated with 0.2 μg/ml HRP-conjugated ConA, and chemiluminescence was detected as described.

[7] = animal studies and preliminary Phase I results; cited from earlier work
[8] = test system: S-1 & S-2, non-small cell lung cancer; test: Cytotoxicity under normoxia, NSCLC; format: cell-based, human; settings: normoxic conditions
Experimental: as §2, with “37° C. Cytotoxicity assay. Cells were incubated for 24 hr at 37° C. in 5% CO2 at which time drug treatments began and continued for 72 hr. […] The pellets were resuspended in 1 ml of Hanks solution and analyzed by Vi-Cell (Beckman Coulter, USA) cell viability analyzer.” for “37° C.”

[9] = test system: Grp78 and Grp94; test: Western blot of Grp78 and Grp94 (unfolded protein response) in SKBR3 cells under normoxia; format: cell-based, human
Experimental: as §3

[10] = test system: SKOV3, ovarian cancer; test: Cytotoxicity under normoxia, SKOV3; format: cell-based; settings: column head gives the result: resistant
Experimental: as §2, with “37° C. Cytotoxicity assay. Cells were incubated for 24 hr at 37° C. in 5% CO2 at which time drug treatments began and continued for 72 hr. […] The pellets were resuspended in 1 ml of Hanks solution and analyzed by Vi-Cell (Beckman Coulter, USA) cell viability analyzer.” for “37° C.”

[11] = test system: TG98, brain cancer (glioblastoma); test: Cytotoxicity under normoxia, TG98; format: cell-based; settings: column head gives the result: sensitive
Experimental: as §1

[12] = test system: SKBR3 cells; test: Growth inhibitory and cytotoxicity assay in SKBR3 cells under normoxia; format: cell-based, human
Experimental: Cytotoxicity assay and Rapid DNA Content Analysis. Cells were incubated for 24 hr at 37° C. in 5% CO2 at which time drug treatments began and were continued for 72 hr. At this time, attached cells were trypsinized and combined with their respective culture media followed by centrifugation at 400 g for 5 min. Pellets containing the cells were either resuspended in 1.5 ml of a medium/trypan blue mixture for cytotoxicity assays or propidium iodide/hypotonic citrate staining solution for determining the nuclear DNA content and cell cycle by a Coulter XL flow cytometer. A minimum of 10,000 cells were analyzed to generate a DNA distribution histogram.
as §1

[13] = test system: 143B, osteosarcoma; test: Cytotoxicity under normoxia, 143B; format: cell-based, human; settings: column head gives the result: resistant
Experimental: as §2, with “37° C. Cytotoxicity assay. Cells were incubated for 24 hr at 37° C. in 5% CO2 at which time drug treatments began and continued for 72 hr. […] The pellets were resuspended in 1 ml of Hanks solution and analyzed by Vi-Cell (Beckman Coulter, USA) cell viability analyzer.” for “37° C.”

[14] = test system: HELA, cervical cancer; test: Cytotoxicity under normoxia, HELA; format: cell-based; settings: column head gives the result: sensitive
Experimental: as §2, with “37° C. Cytotoxicity assay. Cells were incubated for 24 hr at 37° C. in 5% CO2 at which time drug treatments began and continued for 72 hr. […] The pellets were resuspended in 1 ml of Hanks solution and analyzed by Vi-Cell (Beckman Coulter, USA) cell viability analyzer.” for “37° C.”

[15] = test system: fowl plague virus; settings: chick embryo fibroblasts infected with fowl plague virus; cited from earlier work
[16] = test system: MDA-MB-231, breast cancer; test: Cytotoxicity under normoxia, MDA-MB-231; format: cell-based; settings: column head gives the result: resistant
Experimental: as §1

[17] = test system: erbB2; test: Western blot of erbB2 in SKBR3 cells; format: cell-based, human
Experimental: as §3

[18] = test system: Grp78 and Grp94; test: Western blot of Grp78 and Grp94 in models of hypoxia A, B & C; format: cell-based
Experimental: as §3
Three in vitro models of hypoxia. We previously characterized three models of anaerobiosis as follows: Model A are tumor cells treated with 0.05 μg/ml of oligomycin (a mitochondrial inhibitor of ATP synthase); Model B are cells that are deficient in mitochondrial DNA and Model C are cells treated in an hypoxic (0.5% O^2) chamber (Reming Bioinstruments, Redfield, N.Y.).

[19] = test system: 1469, pancreatic cancer; test: Cytotoxicity under normoxia, 1469; format: cell-based; settings: column head gives the result: resistant
Experimental: as §2, with “37° C. Cytotoxicity assay. Cells were incubated for 24 hr at 37° C. in 5% CO2 at which time drug treatments began and continued for 72 hr. […] The pellets were resuspended in 1 ml of Hanks solution and analyzed by Vi-Cell (Beckman Coulter, USA) cell viability analyzer.” for “37° C.”

[20] = test system: HEPA-1; test: Cytotoxicity under normoxia, HEPA-1; format: cell-based, rat; settings: column head gives the result: resistant
Experimental: as §1

[21] = test system: glycoproteins (ConA binding) in SKBR3 cells; test: HRP-conjugated ConA blot of SKBR3 cell extracts; format: cell-based, human; settings: SKBR3, 48 hr, 8 mM sugar analog
Experimental: as §3

O=CC[C@@H](O)[C@H](O)[C@H](O)CO [2-DG, 2-deoxy-D-glucose]
2-DG Resistant Cell Lines (2-DG under normoxia) [1]: MCF-7, breast cancer
tumor cell lines undergoing significant cell death ([2]; 6 mM, normal oxygen tension): 6 out of 15
dose at which a select number of tumor cell lines are killed ([2]; normal oxygen tension): 4 mM
toxicity to select tumor cell types ([2]; normoxia): toxic to select tumor cell types growing under normoxia
2-DG Sensitive Cell Lines (2-DG under normoxia) [3]: 1420, pancreatic cancer
effect on efficacy of standard chemotherapeutic agents [4]: increases the efficacy of standard chemotherapeutic agents
2-DG Resistant Cell Lines (2-DG under normoxia) [5]: MDA-MB-468, breast cancer
induction of GADD154/CHOP [6]: induced
tolerability [7]: well-tolerated and relatively non-toxic to normal cells
toxicity to NSCLC [8]: toxic
expression of chaperones Grp78 and Grp94 ([9]; SKBR3, normoxia, 24 hrs, 8 mM sugar analog, tunicamycin 1 micro g/ml): both Grp78 and Grp94 are upregulated
up-regulation of GRP 78 and 94, dose dependence ([9]; select tumor cells, normoxic conditions): up-regulated by 2-DG and 2-FM in a dose-dependent manner
2-DG Resistant Cell Lines (2-DG under normoxia) [10]: SKOV3, ovarian cancer
2-DG Sensitive Cell Lines (2-DG under normoxia) [11]: TG98, brain cancer (glioblastoma)
cells killed ([12]; SKBR3, 12 mM, 72 hrs, normoxic conditions): 60%
cytotoxicity measured by trypan blue exclusion ([12]; SKBR3, 72 hrs, normal oxygen conditions): toxic
2-DG Sensitive Cell Lines (2-DG under normoxia) ([12]; column head gives the result: sensitive): SKBR3, breast cancer
rank order in growth inhibiting and killing SKBR3 cells ([12]; normoxia): 2-DG>2-FDM>>>2-FDG
2-DG Resistant Cell Lines (2-DG under normoxia) [13]: 143B, osteosarcoma
2-DG Sensitive Cell Lines (2-DG under normoxia) [14]: HELA, cervical cancer
order of potency to inhibit viral glycoprotein synthesis [15]: 2-DG>2-FDM>2-FDG
2-DG Resistant Cell Lines (2-DG under normoxia) [16]: MDA-MB-231, breast cancer
molecular weight of erbB2 [17]: decreased the molecular weight of erbB2
upregulation of the UPR (Grp78, Grp94) ([18]; hypoxia model C): both chaperones are upregulated
upregulation of the UPR (Grp78, Grp94) ([18]; hypoxia models A and B): no significant upregulation of the UPR
2-DG Resistant Cell Lines (2-DG under normoxia) [19]: 1469, pancreatic cancer
2-DG Resistant Cell Lines (2-DG under normoxia) [20]: HEPA-1, rat hepatoma
ConA binding of glycoproteins [21]: decrease ConA binding
